Experimental findings from PubChem BioAssay (NCI) are described below.

Some test systems named below: NCI-H460 lung; T-47D breast; MDA-MB-231 breast; HCT-15 colon; HT29 colon; SNB-75 CNS; UACC-62 melanoma; A498 renal; SK-MEL-28 melanoma; CCRF-CEM leukemia; NCI-H522 lung; MCF7 breast; SK-MEL-5 melanoma; EKVX NSCLC; MDA-N; SN12C renal; HOP-62 NSCLC; ACHN renal; MDA-MB-435; SR leukemia.
What all share (assay): NCI-60 cell line screen, 48 h

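Cells were grown in 96-well plates and exposed to each compound for 48 hours at five concentrations; endpoints were interpolated linearly between bracketing concentrations, or set to the highest concentration if not reached. TGI denotes the concentration required for complete inhibition of growth.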

Consider `COc1cc2c(cc1OC)C1C(O)C(OC)C=C3CC[N+](C)(C2)C31` (stereo not given), for which the TGI in the test with NCI-H460 lung, in the test with T-47D breast, in the test with MDA-MB-231 breast, in the test with HCT-15 colon, in the test with HT29 colon and in the test on SNB-75 CNS was more than 100 µM in each case. The TGI in the test with UACC-62 melanoma, in the test with A498 renal, in the test with SK-MEL-28 melanoma, with CCRF-CEM leukemia, with NCI-H522 lung and in the test with MCF7 breast was more than 100 µM in each case. Also, the TGI with SK-MEL-5 melanoma, in the test on EKVX NSCLC, with MDA-N, in the test on SN12C renal, in the test with HOP-62 NSCLC and in the test with ACHN renal was more than 100 µM throughout. Moreover, the TGI in the test on MDA-MB-435 was more than 100 µM.

Turning to `CC1=CC2(O)OC3(CC2=C(C)C)C(C)CCC13` (stereo not given), the TGI with T-47D breast, in the test with MDA-MB-231 breast, with HCT-15 colon, in the test on HT29 colon, in the test with SNB-75 CNS and in the test on UACC-62 melanoma was more than 100 µM in each case. The TGI in the test with A498 renal, in the test with CCRF-CEM leukemia, in the test on NCI-H522 lung, in the test with MCF7 breast, with SK-MEL-5 melanoma and in the test on EKVX NSCLC was more than 100 µM throughout. Moreover, the TGI in the test with MDA-N, in the test on SN12C renal, in the test with HOP-62 NSCLC, in the test on ACHN renal and in the test with MDA-MB-435 was more than 100 µM each time.

As to `CO[C@@](c1ccccc1)(c1nc(C#N)c(N)o1)C(F)(F)F`, the TGI in the test on T-47D breast, in the test with MDA-MB-231 breast, in the test on HCT-15 colon, with SNB-75 CNS, in the test on UACC-62 melanoma and with A498 renal was more than 100 µM in each case. For the same compound, the TGI in the test with SK-MEL-28 melanoma is more than 100 µM; in the test on CCRF-CEM leukemia it was 74.7 µM; with NCI-H522 lung, 85.9 µM; in the test with MCF7 breast, more than 100 µM; in the test with SK-MEL-5 melanoma, more than 100 µM; with EKVX NSCLC it was more than 100 µM. Besides, the TGI with MDA-N, with SN12C renal, in the test with HOP-62 NSCLC, in the test with ACHN renal and in the test with MDA-MB-435 was more than 100 µM each time.

For `Cn1cnc2c(OCC3CCCCC3)nc(N)nc21`, the TGI with NCI-H460 lung, with MDA-MB-231 breast, in the test with HCT-15 colon, with HT29 colon, in the test on SNB-75 CNS and in the test with UACC-62 melanoma was more than 100 µM in each case. In addition, the TGI in the test with SK-MEL-28 melanoma, with CCRF-CEM leukemia, in the test with NCI-H522 lung, with MCF7 breast, with SK-MEL-5 melanoma and with EKVX NSCLC was more than 100 µM throughout. The TGI in the test with MDA-N, in the test with SN12C renal, in the test with HOP-62 NSCLC, in the test on ACHN renal and in the test on MDA-MB-435 was more than 100 µM in each case.

Take `O=C1/C(=C/c2ccc(Cl)cc2)NC(=S)N1CN1CCOCC1`: the TGI with MDA-MB-231 breast, in the test on HCT-15 colon, in the test on HT29 colon, in the test with SNB-75 CNS, in the test on UACC-62 melanoma and in the test on A498 renal was more than 100 µM throughout. Also, the TGI in the test on SK-MEL-28 melanoma, in the test on CCRF-CEM leukemia, in the test on MCF7 breast, with SK-MEL-5 melanoma, in the test with EKVX NSCLC and in the test on MDA-N was more than 100 µM each time. The TGI in the test with SN12C renal, in the test with HOP-62 NSCLC, with ACHN renal and in the test with MDA-MB-435 was more than 100 µM throughout.

As for `CO/C(=N\N=C\c1ccc(OC)cc1OC)c1ccncc1`, the TGI in the test on NCI-H460 lung, with T-47D breast, in the test with SR leukemia, in the test with HCT-15 colon, with SNB-75 CNS and in the test with A498 renal was more than 10 µM in each case. The TGI with SK-MEL-28 melanoma, in the test with CCRF-CEM leukemia, in the test with MCF7 breast, in the test on SK-MEL-5 melanoma, in the test with SN12C renal and in the test with HOP-62 NSCLC was more than 10 µM in each case. Further, the TGI in the test with ACHN renal is more than 10 µM.

Take `Nc1nc(N)nc(-c2cnccn2)n1`: the TGI in the test on NCI-H460 lung, in the test on T-47D breast, with MDA-MB-231 breast, with SR leukemia, in the test on HCT-15 colon and with SNB-75 CNS was more than 100 µM throughout. In addition, the TGI in the test on UACC-62 melanoma, in the test on A498 renal, in the test on SK-MEL-28 melanoma, in the test on CCRF-CEM leukemia, in the test on NCI-H522 lung and in the test with MCF7 breast was more than 100 µM throughout. The TGI in the test on EKVX NSCLC, in the test on SN12C renal, with HOP-62 NSCLC, in the test on ACHN renal and in the test on MDA-MB-435 was more than 100 µM throughout.

For the compound `O=C1SC(c2ccc(Cl)cc2)(c2ccc(Cl)cc2)c2ccccc21`, the TGI in the test on NCI-H460 lung, with T-47D breast, in the test with MDA-MB-231 breast, in the test with HCT-15 colon, in the test with HT29 colon and in the test with SNB-75 CNS was more than 100 µM each time. The TGI in the test on UACC-62 melanoma, in the test with A498 renal, in the test on SK-MEL-28 melanoma, in the test on CCRF-CEM leukemia, in the test with NCI-H522 lung and with MCF7 breast was more than 100 µM throughout. Moreover, the TGI in the test with SK-MEL-5 melanoma, in the test on EKVX NSCLC, in the test with MDA-N, with SN12C renal, in the test with HOP-62 NSCLC and in the test with ACHN renal was more than 100 µM each time. In the test with MDA-MB-435, this compound displayed a TGI of more than 100 µM.
